Calls of active or inactive are those of the source. The rule behind the calls is not given here.
Tested on: CCRIS mutagenicity, Ames/micronucleus/aberration tests
Assay: CCRIS mutagenicity studies
[1] = Test System: AMES SALMONELLA TYPHIMURIUM, Strain/Indicator: TA98, Metabolic Activation: NONE, Method: STANDARD PLATE
[2] = Test System: AMES SALMONELLA TYPHIMURIUM, Strain/Indicator: TA98, Metabolic Activation: RAT, LIVER, S-9, AROCLOR 1254, Method: STANDARD PLATE
[3] = Test System: AMES SALMONELLA TYPHIMURIUM, Strain/Indicator: TA100, Metabolic Activation: NONE, Method: STANDARD PLATE
[4] = Test System: AMES SALMONELLA TYPHIMURIUM, Strain/Indicator: TA100, Metabolic Activation: RAT, LIVER, S-9, AROCLOR 1254, Method: STANDARD PLATE
[5] = Test System: AMES SALMONELLA TYPHIMURIUM, Strain/Indicator: TA1535, Metabolic Activation: NONE, Method: STANDARD PLATE
[6] = Test System: AMES SALMONELLA TYPHIMURIUM, Strain/Indicator: TA1535, Metabolic Activation: RAT, LIVER, S-9, AROCLOR 1254, Method: STANDARD PLATE
[7] = Test System: AMES SALMONELLA TYPHIMURIUM, Strain/Indicator: TA1537, Metabolic Activation: NONE, Method: STANDARD PLATE
[8] = Test System: AMES SALMONELLA TYPHIMURIUM, Strain/Indicator: TA1537, Metabolic Activation: RAT, LIVER, S-9, AROCLOR 1254, Method: STANDARD PLATE
[9] = Test System: AMES SALMONELLA TYPHIMURIUM, Strain/Indicator: TA1538, Metabolic Activation: NONE, Method: STANDARD PLATE
[10] = Test System: AMES SALMONELLA TYPHIMURIUM, Strain/Indicator: TA1538, Metabolic Activation: RAT, LIVER, S-9, AROCLOR 1254, Method: STANDARD PLATE

Measured: mutagenic call

COCC(O)Cn1cc([N+](=O)[O-])nc1C (stereo not given)
active: Test System: E. COLI, Strain/Indicator: CM561 EXRA, Metabolic Activation: NONE, Method: SUSPENSION/PLATE active; positive | Test System: E. COLI, Strain/Indicator: CM611 UVRA EXRA, Metabolic Activation: NONE, Method: SUSPENSION/PLATE active; positive | Test System: E. COLI, Strain/Indicator: CM611 UVRA EXRA, Metabolic Activation: RAT, LIVER, S-9, AROCLOR 1254, Method: SUSPENSION/PLATE active; positive
inactive: Test System: E. COLI, Strain/Indicator: CM561 EXRA, Metabolic Activation: RAT, LIVER, S-9, AROCLOR 1254, Method: SUSPENSION/PLATE inactive; negative

CON(C)C(=O)Nc1ccc(Br)cc1
inactive: [1] inactive; negative | [2] inactive; negative | [3] inactive; negative | [4] inactive; negative

O=C(O)CCc1ccccc1
inactive: Test System: AMES SALMONELLA TYPHIMURIUM, Strain/Indicator: TA98, Metabolic Activation: HAMSTER, LIVER, S-9, AROCLOR 1254, Method: STANDARD PLATE inactive; negative | [1] inactive; negative | [2] inactive; negative | Test System: AMES SALMONELLA TYPHIMURIUM, Strain/Indicator: TA100, Metabolic Activation: HAMSTER, LIVER, S-9, AROCLOR 1254, Method: STANDARD PLATE inactive; negative | [3] inactive; negative | [4] inactive; negative | Test System: AMES SALMONELLA TYPHIMURIUM, Strain/Indicator: TA1535, Metabolic Activation: HAMSTER, LIVER, S-9, AROCLOR 1254, Method: STANDARD PLATE inactive; negative | [5] inactive; negative | [6] inactive; negative | Test System: AMES SALMONELLA TYPHIMURIUM, Strain/Indicator: TA1537, Metabolic Activation: HAMSTER, LIVER, S-9, AROCLOR 1254, Method: STANDARD PLATE inactive; negative | [7] inactive; negative | [8] inactive; negative | Test System: AMES SALMONELLA TYPHIMURIUM, Strain/Indicator: TA1538, Metabolic Activation: HAMSTER, LIVER, S-9, AROCLOR 1254, Method: STANDARD PLATE inactive; negative | [9] inactive; negative | [10] inactive; negative | Test System: MOUSE LYMPHOMA, Strain/Indicator: L5178Y (TK+/TK-), Metabolic Activation: NONE, Method: SUSPENSION/PLATE inactive; negative. reevaluation of results: negative | Test System: MOUSE LYMPHOMA, Strain/Indicator: L5178Y (TK+/TK-), Metabolic Activation: RAT, LIVER, S-9, AROCLOR 1254, Method: SUSPENSION/PLATE inactive; negative. reevaluation of results: negative

COc1cc(C(=O)OCCCN2CCCN(CCCOC(=O)c3cc(OC)c(OC)c(OC)c3)CC2)cc(OC)c1OC
inactive: Test System: AMES SALMONELLA TYPHIMURIUM, Strain/Indicator: TA98, Metabolic Activation: NONE inactive; negative | Test System: AMES SALMONELLA TYPHIMURIUM, Strain/Indicator: TA98, Metabolic Activation: RAT, LIVER, S-9, PHENOBARBITAL AND 5,6-BENZOFLAVONE inactive; negative | Test System: AMES SALMONELLA TYPHIMURIUM, Strain/Indicator: TA100, Metabolic Activation: NONE inactive; negative | Test System: AMES SALMONELLA TYPHIMURIUM, Strain/Indicator: TA100, Metabolic Activation: RAT, LIVER, S-9, PHENOBARBITAL AND 5,6-BENZOFLAVONE inactive; negative | Test System: AMES SALMONELLA TYPHIMURIUM, Strain/Indicator: TA1535, Metabolic Activation: NONE inactive; negative | Test System: AMES SALMONELLA TYPHIMURIUM, Strain/Indicator: TA1535, Metabolic Activation: RAT, LIVER, S-9, PHENOBARBITAL AND 5,6-BENZOFLAVONE inactive; negative | Test System: AMES SALMONELLA TYPHIMURIUM, Strain/Indicator: TA1537, Metabolic Activation: NONE inactive; negative | Test System: AMES SALMONELLA TYPHIMURIUM, Strain/Indicator: TA1537, Metabolic Activation: RAT, LIVER, S-9, PHENOBARBITAL AND 5,6-BENZOFLAVONE inactive; negative | Test System: E. COLI, Strain/Indicator: WP2 UVRA, Metabolic Activation: NONE inactive; negative | Test System: E. COLI, Strain/Indicator: WP2 UVRA, Metabolic Activation: RAT, LIVER, S-9, PHENOBARBITAL AND 5,6-BENZOFLAVONE inactive; negative

O=[N+]([O-])C(Cl)Br (stereo not given)
inactive: Test System: Ames Salmonella typhimurium, Strain/Indicator: RSJ100, Metabolic Activation: Rat, Liver, S-9, Aroclor, Method: Standard plate inactive; negative | Test System: Ames Salmonella typhimurium, Strain/Indicator: TA98, Metabolic Activation: Rat, Liver, S-9, Aroclor, Method: Standard plate inactive; negative | Test System: Ames Salmonella typhimurium, Strain/Indicator: TA100, Metabolic Activation: None, Method: Standard plate inactive; negative | Test System: Ames Salmonella typhimurium, Strain/Indicator: TA104, Metabolic Activation: None, Method: Standard plate inactive; negative | Test System: Ames Salmonella typhimurium, Strain/Indicator: TA104, Metabolic Activation: Rat, Liver, S-9, Aroclor, Method: Standard plate inactive; negative | Test System: Ames Salmonella typhimurium, Strain/Indicator: TPT100, Metabolic Activation: None, Method: Standard plate inactive; negative
active: Test System: Ames Salmonella typhimurium, Strain/Indicator: RSJ100, Metabolic Activation: None, Method: Standard plate active; positive (weak) | Test System: Ames Salmonella typhimurium, Strain/Indicator: TA98, Metabolic Activation: None, Method: Standard plate active; positive (weak) | Test System: Ames Salmonella typhimurium, Strain/Indicator: TA100, Metabolic Activation: Rat, Liver, S-9, Aroclor, Method: Standard plate active; positive

CC(C)(C)c1ccc(-c2ccc(N=O)cc2)cc1
active: [1] active; positive | Test System: AMES SALMONELLA TYPHIMURIUM, Strain/Indicator: TA98, Metabolic Activation: S-9, Method: STANDARD PLATE active; positive | [3] active; positive | Test System: AMES SALMONELLA TYPHIMURIUM, Strain/Indicator: TA100, Metabolic Activation: S-9, Method: STANDARD PLATE active; positive

CCCCN=[N+]=[N-]
active: Test System: Ames Salmonella typhimurium, Strain/Indicator: TA100, Metabolic Activation: Rat, Liver, S-9, Aroclor 1254, Method: Preincubation active; positive
inactive: Test System: Ames Salmonella typhimurium, Strain/Indicator: TA100, Metabolic Activation: None, Method: Preincubation inactive; negative

Nc1cc(CCO)c(N)c([N+](=O)[O-])c1
inactive: [3] inactive; negative | [5] inactive; negative | [6] inactive; negative | [7] inactive; negative | [8] inactive; negative
active: [1] active; positive | [2] active; positive | [4] active; positive | [9] active; positive | [10] active; positive
